Data from patent publication US12589101B2, “Cyclodextrin protein drug conjugates” (Regeneron Pharmaceuticals, Inc., priority 2017, dated 2026).
≈ marks a conversion by molar mass, not a printed value. Where two headings read alike, the source gives them in different places.

What was measured:
[1] = Solubility of linker-payloads (LC-MS standard curve, saturated solution); format: physicochemical; details: for solubility at 10 min: thermodynamic from solid
Method: The following test assays the solubility of the linker-payloads with a cyclodextrin moiety and the linker-payloads without a cyclodextrin moiety.
The test compounds were dissolved in DMSO to build a standard curve using LC-MS method A or B. The test sample was dissolved in water and sonicated for 10 minutes, and then centrifuged. The upper clear solution was analyzed using the same method A or B and the solubility was calculated based on its peak area.
Detailed test procedures were as follows: • 1. […] 0.05 mg of compound was suspended in water (1 mL) and sonicated for 10 minutes. After centrifugation, the clear solution above was collected to provide the saturated sample solution. • 3. All the standard solutions A, B, C, D, E and sample solution were analyzed by LCMS (using the same method and same injection volume) to obtain the peak areas. • 4. Calculate the standard curve according to the data of A-D (X=concentration, Y=peak areas). • 5. Calculate to obtain the concentration of saturated sample solution according to the functions obtained above.

Cathepsin B = Cathepsin B (Homo sapiens, UniProt P07858); assay: Cathepsin B cleavage rate of linker-payloads (Example 66); format: biochemical; details: for CapB (%): pH 5.0, 37° C.
Method: Step 1: Preparation of Cathepsin B buffer: 0.1 M NaOAc/0.01M DTT (pH5.0) Dissolve 8.3 g/L NaOAc, 1.54 g/L DTT in deionized water. Adjust pH to 5.0 with HCl/sodium hydroxide.
Step 2: Test Cleavage Rate
• 1. Prepare 25 μM of testing sample: To a 2-mL-tube was added 0.5 mg of testing sample, followed by the addition of 0.2 mL of DMSO. The solution was added dropwise into 0.8 mL of 0.1 M NaOAc/0.01 M DTT buffer. The obtained mixtures were sonicated for 5 minutes to obtain clear and colorless solutions. The pH value of the solution was around 5 according to pH test strip. • 2. Preheat assay buffer: 0.1 M NaOAc/0.01 M DTT (pH 5.0) • 3. Spiking solutions for test compounds: 25 μM Spiking solutions for test compounds: Add 2 μL of 5 mM stock solution into 398 μL of 0.1 M NaOAc/0.01 M DTT buffer (pH 5.0). • 4. Prepare 0.47 μg/μL Cathepsin B in 50 mM NaOAc/1 mM EDTA (pH 5.0). Put on ice. • 5. Without CA074 samples: Add 4 μL of 0.47 μg/μL Cathepsin B into 196 μL of 25 μM Spiking solutions (from step 2), incubate the tubes at 37° C. • 6. With CA074 samples: Add 4 μL of 0.47 μg/μL Cathepsin B with 4 μL of 10 mM Inhibitor (CA074) into 196 μL of 25 μM Spiking solutions (from step 2), incubate the tubes. • 7. After quenching, shake the plate and centrifuge them at 14000 rpm. • 8. Transfer 50 μL of the supernatant from each well into a 96-well sample plate containing 50 μL of ultra pure water (Millipore, ZMQS50F01) for LC/MS analysis. Step 3: Test reference compounds: • 9. Preheat assay buffer: 100 mM Na/K phosphate, pH 6.0, with 1.33 mM EDTA and 2 mM DTT. • 10. Prepare 0.024 μg/μL Cathepsin B: Add 1 μL of 0.47 μg/μL Cathepsin B stock into 19 μL of assay buffer (from step 11). • 11. Add 2 μL of 0.024 μg/μL Cathepsin B (from step 12) to a opaque 96-well plate. • 12. Add 96 μL of assay buffer to each sample. • 13. Add 2 μL of the 10 mM substrate Z-RR-MNA (200 μM final concentration). • 14. For negative control (With inhibitor), add 2 μL of 10 mM Inhibitor (CA074): Immediately read the samples in a kinetic mode at excitation of 340 nm/emission of 425 nm (Read the plate every 30 Second for 3 min). Step 4: Stability of Cathepsin B in incubation samples: • 15. Take 5 μL of incubation samples into 93 μL of assay buffer (from step 11), and then add 2 μL of 10 mM substrate (Z-RR-MNA). • 16. Incubate the samples at 37° C. for 2 min. • 17. Read the samples at excitation of 340 nm/emission of 425 nm.

| Compound | aqueous solubility (in words) ([1]; water) | solubility at 10 min ([1]; water, aqueous, read-out: Aq. Solubility) | Cathepsin B cleavage rate (Cathepsin B) | CapB (%) (Cathepsin B; Cathepsin B cleavage rate) | solubility at 10 min ([1]; water, Solubility) | solubility at 10 min ([1]; water, Aq. Solubility (mg/mL)) | Solubility ([1]; 10 min) | capB (Cathepsin B; Cathepsin B cleavage rate, Table 8A) |
| --- | --- | --- | --- | --- | --- | --- | --- | --- |
| CCC[C@@H]1O[C@@H]2C[C@H]3[C@@H]4CCC5=CC(=O)C=C[C@]5(C)[C@H]4[C@@H](O)C[C@]3(C)[C@]2(C(=O)COc2ccc(NC(=O)[C@H](C)NC(=O)[C@@H](NC(=O)[C@@H](CCCCNC(=O)COC3CCCCCc4c3nnn4CC3OC4OC5C(CO)OC(OC6C(CO)OC(OC7C(CO)OC(OC8C(CO)OC(OC9C(CO)OC(OC3C(O)C4O)C(O)C9O)C(O)C8O)C(O)C7O)C(O)C6O)C(O)C5O)NC(=O)CCOCCOCCOCCOCCNC(=O)CCC(=O)N3Cc4ccccc4C#Cc4ccccc43)C(C)C)cc2)O1 (some centres unmarked) [Ex47] | below detectable levels | < 100 µg/mL | 14% | % (% ≤50 CapB (%)) |  |  |  |  |
| CC(C)[C@H](NC(=O)[C@@H](CCCCNC(=O)CCOCCOCCOCCOCCNC(=O)COC1CCCCCc2nnn(CC3OC4OC5C(CO)OC(OC6C(CO)OC(OC7C(CO)OC(OC8C(CO)OC(OC9C(CO)OC(OC3C(O)C4O)C(O)C9O)C(O)C8O)C(O)C7O)C(O)C6O)C(O)C5O)c21)NC(=O)CCOCCOCCOCCOCCNC(=O)CCC(=O)N1Cc2ccccc2C#Cc2ccccc21)C(=O)N[C@@H](CCCNC(N)=O)C(=O)Nc1ccc(COC(=O)NCCOc2ccc3c(c2)[C@@]2(C)CCC[C@](C)(C(=O)NC(=O)[C@@]4(C)CCC[C@]5(C)c6cc(O)ccc6CC[C@@H]45)[C@@H]2CC3)cc1 (some centres unmarked) [Ex50] |  |  |  | % (% ≤50 CapB (%)) | 330 µg/mL (≈ 108 µM) |  |  |  |
| CC(C)[C@H](NC(=O)[C@@H](CCCCNC(=O)CCOCCOCCOCCOCCNC(=O)COC1CCCCCc2nnn(CC3OC4OC5C(CO)OC(OC6C(CO)OC(OC7C(CO)OC(OC8C(CO)OC(OC9C(CO)OC(OC3C(O)C4O)C(O)C9O)C(O)C8O)C(O)C7O)C(O)C6O)C(O)C5O)c21)NC(=O)CCOCCOCCOCCOCCNC(=O)CCC(=O)N1Cc2ccccc2C#Cc2ccccc21)C(=O)N[C@@H](C)C(=O)Nc1ccc2c(c1)[C@@]1(C)CCC[C@](C)(C(=O)NC(=O)[C@@]3(C)CCC[C@]4(C)c5cc(O)ccc5CC[C@@H]34)[C@@H]1CC2 (stereo partly drawn) [Ex53, DIBAC-suc-PEG4-D-Lys(PEG4-COT-CD)-Val-Ala-1d] |  |  |  | % (50< % ≤60 CapB (%)) | 180 µg/mL (≈ 65 µM) | 330 µg/mL (≈ 119 µM) |  |  |
| CCCC1O[C@@H]2C[C@H]3[C@@H]4C[C@H](F)C5=CC(=O)C=C[C@]5(C)[C@@]4(F)[C@@H](O)C[C@]3(C)[C@]2(C(=O)COc2ccc(NC(=O)OCc3ccc(NC(=O)[C@H](CCCNC(N)=O)NC(=O)[C@@H](NC(=O)CCOCCOCCOCCOCCNC(=O)CCC(=O)N4Cc5ccccc5C#Cc5ccccc54)C(C)C)cc3)cc2)O1 (some centres unmarked) [Ex61, DIBAC-suc-PEG4-vcPAB-1i] |  |  |  | % (% ≤50 CapB (%)) | < 10 µg/mL | 10 µg/mL (≈ 6.68 µM) | 0.01 mg/ mL mg/mL | <5% |
